Data: patent publication US9234885B2 (priority 2011, dated 2016)
Entries after “also recorded” stand apart in the source; their conditions may differ.

Experiments:
rVSV-GP-EboV [1] = format: cell-based, Ebola virus
[2] = tested on: human peripheral blood monocyte-derived dendritic cells and umbilical-vein endothelial cells (HUVEC)
rVSV-GP-EboV [3] = format: cell-based, Ebola virus; remark: listed apart in the source
MARV-Ci67 = format: cell-based, Marburg virus
EBOV-Zaire 1995 = format: cell-based, Ebola virus
VSV [4] = format: cell-based, vesicular stomatitis virus
[5] = tested on: intracellular cholesterol; format: cell-based, grivet monkey
VSV [6] = format: cell-based, vesicular stomatitis virus; remark: listed apart in the source

Row | Compound | VSV M staining pattern after rVSV-GP-EboV (diffuse = fusion, punctate = block) (rVSV-GP-EboV [1]) | cell number or morphology [2] | time after addition to cells until viral infection is inhibited (rVSV-GP-EboV [3]) | viral infection mediated by EboV GP (rVSV-GP-EboV [3]) | infection by authentic MarV, percentage of infected cells by immunostaining (MARV-Ci67) | viral yield, authentic MarV (MARV-Ci67) | infection by authentic EboV, percentage of infected cells by immunostaining (EBOV-Zaire 1995) | viral yield, authentic EboV (EBOV-Zaire 1995) | VSV M staining pattern after VSV (diffuse = fusion, punctate = block) (VSV [4]) | time until significant intracellular accumulation of cholesterol is observed [5] | viral infection by VSV (VSV [6])
1 | CCN(CC)CCO[C@H]1CC[C@@]2(C)C(=CC[C@@H]3[C@@H]2CC[C@]2(C)C(=O)CC[C@@H]32)C1 [U18666A, 3-β-[2-(diethylamino)ethoxy]androst-5-en-17-one] | only punctate M staining | without affecting | < 10 min | potently inhibited | greatly reduced; also recorded: blocks | Stark reductions | greatly reduced; also recorded: blocks | Stark reductions | Diffuse M staining | > 4 h | but not VSV
2 | CN(C)CCCN1c2ccccc2CCc2ccccc21 [imipramine] | – | – | – | potently inhibited | blocks | Stark reductions | blocks | Stark reductions | – | – | but not VSV
3 | ammonium chloride [NH4Cl] | discrete punctuate of M staining | – | – | – | – | – | – | – | – | – | –
4 | bafilomycin A1 [bafA1] | discrete punctuate of M staining | – | – | – | – | – | – | – | – | – | –
